# “And” between values parts separate entries of the source, which are not always exact repeats. Equal entries are not always repeated. Inconclusive results and toxic doses are left out.
# Tested on: B6C3F1 mice, B16 melanoma ip, median survival T/C
# Assay: NCI In Vivo Anticancer Drug Screen. Data for tumor model B16 Melanoma (intraperitoneal) in B6C3F1 mice
# Conditions: endpoint: median survival time, higher = longer survival
# How it was run: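 Readout: survival or tumor size in treated mice relative to vehicle controls (T/C). Model uses transplantable tumors grown in mice.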
# [1] = dose: 12.5 mg/kg/injection, schedule: Q01DX009 (ip), vehicle: saline with Tween-80
# [2] = dose: 25.0 mg/kg/injection, schedule: Q01DX009 (ip), vehicle: saline with Tween-80
# [3] = dose: 50.0 mg/kg/injection, schedule: Q01DX009 (ip), vehicle: saline with Tween-80
smiles,measurement,setting,value
CC[C@@]1(O)C[C@H](OC2CC(N(C)C)C(OC3CC(O)C(O[C@@H]4O[C@@H](C)C(=O)C=C4N)C(C)O3)C(C)O2)c2c(cc3c(c2O)C(=O)c2c(O)ccc(O)c2C3=O)[C@H]1C(=O)OC (some centres not stated),T/C,"dose: 0.02 mg/kg/injection, schedule: Q01DX001 (ip), vehicle: suspension in saline",102 % of control
same,T/C,"dose: 0.05 mg/kg/injection, schedule: Q01DX001 (ip), vehicle: suspension in saline",111 % of control
same,T/C,"dose: 0.1 mg/kg/injection, schedule: Q01DX001 (ip), vehicle: suspension in saline",111 % of control
same,T/C,"dose: 0.19 mg/kg/injection, schedule: Q01DX009 (ip), vehicle: saline",121 % of control
same,T/C,"dose: 0.2 mg/kg/injection, schedule: Q01DX001 (ip), vehicle: suspension in saline",116 % of control
same,T/C,"dose: 0.4 mg/kg/injection, schedule: Q01DX001 (ip), vehicle: suspension in saline",121 % of control
same,T/C,"dose: 0.75 mg/kg/injection, schedule: Q01DX009 (ip), vehicle: saline",153 % of control
same,T/C,"dose: 0.8 mg/kg/injection, schedule: Q01DX001 (ip), vehicle: suspension in saline",121 % of control
same,T/C,"dose: 1.5 mg/kg/injection, schedule: Q01DX009 (ip), vehicle: saline",173 % of control
same,T/C,"dose: 3.0 mg/kg/injection, schedule: Q01DX009 (ip), vehicle: saline",179 % of control
same,T/C,"dose: 3.2 mg/kg/injection, schedule: Q01DX001 (ip), vehicle: suspension in saline",152 % of control
c1ccc2c(c1)[As]=c1ccccc1=[As]2 (configuration not stated),T/C,"dose: 0.75 mg/kg/injection, schedule: Q01DX009 (ip), vehicle: saline with Tween-80",105 % of control
same,T/C,"dose: 1.5 mg/kg/injection, schedule: Q01DX009 (ip), vehicle: saline with Tween-80",112 % of control and 103 % of control
same,T/C,"dose: 3.0 mg/kg/injection, schedule: Q01DX009 (ip), vehicle: saline with Tween-80",107 % of control and 108 % of control
same,T/C,"dose: 6.0 mg/kg/injection, schedule: Q01DX009 (ip), vehicle: saline with Tween-80",115 % of control and 98 % of control
same,T/C,"dose: 12.0 mg/kg/injection, schedule: Q01DX009 (ip), vehicle: saline with Tween-80",122 % of control
same,T/C,"dose: 24.0 mg/kg/injection, schedule: Q01DX009 (ip), vehicle: saline with Tween-80",87 % of control
Cn1c2nc(=O)n(-c3ccccc3)c(=O)c-2nc2c1CCCC2,T/C,"dose: 6.25 mg/kg/injection, schedule: Q01DX008 (ip), vehicle: saline with Tween-80",96 % of control
same,T/C,"dose: 6.25 mg/kg/injection, schedule: Q01DX009 (ip), vehicle: saline with Tween-80",119 % of control
same,T/C,"dose: 12.5 mg/kg/injection, schedule: Q01DX008 (ip), vehicle: saline with Tween-80",104 % of control
same,T/C,[1],107 % of control
same,T/C,"dose: 25.0 mg/kg/injection, schedule: Q01DX008 (ip), vehicle: saline with Tween-80",101 % of control
same,T/C,[2],107 % of control
same,T/C,"dose: 50.0 mg/kg/injection, schedule: Q01DX008 (ip), vehicle: saline with Tween-80",98 % of control
same,T/C,[3],101 % of control
same,T/C,"dose: 100.0 mg/kg/injection, schedule: Q01DX009 (ip), vehicle: saline with Tween-80",101 % of control and 102 % of control
same,T/C,"dose: 200.0 mg/kg/injection, schedule: Q01DX009 (ip), vehicle: saline with Tween-80",96 % of control and 97 % of control
CCCC(=O)OCC1OC(n2cnc3c(=S)nc(N)[nH]c32)C(OC(=O)CCC)C1OC(=O)CCC (configuration not stated),T/C,"dose: 0.78 mg/kg/injection, schedule: Q01DX009 (ip), vehicle: Klucel (hydroxypropylcellulose) (HPC)",103 % of control
same,T/C,"dose: 1.56 mg/kg/injection, schedule: Q01DX009 (ip), vehicle: Klucel (hydroxypropylcellulose) (HPC)",104 % of control
same,T/C,"dose: 3.12 mg/kg/injection, schedule: Q01DX009 (ip), vehicle: Klucel (hydroxypropylcellulose) (HPC)",110 % of control
same,T/C,"dose: 6.25 mg/kg/injection, schedule: Q01DX009 (ip), vehicle: Klucel (hydroxypropylcellulose) (HPC)",114 % of control
CC(=O)O[C@@H]1CO[C@H]2O[C@H]3[C@@H](C(C=O)=C[C@H](O)[C@@H]4C5=C(C(C)C)CC[C@]5(C)CC[C@@]34C)[C@@]2(O)C1=O,T/C,"dose: 0.75 mg/kg/injection, schedule: Q01DX009 (ip), vehicle: Klucel (hydroxypropylcellulose) (HPC)",89 % of control
same,T/C,"dose: 1.5 mg/kg/injection, schedule: Q01DX009 (ip), vehicle: Klucel (hydroxypropylcellulose) (HPC)",94 % of control
same,T/C,"dose: 3.0 mg/kg/injection, schedule: Q01DX009 (ip), vehicle: Klucel (hydroxypropylcellulose) (HPC)",88 % of control
O=C(Nc1nncs1)c1ccncc1,T/C,[1],108 % of control
same,T/C,[2],102 % of control
same,T/C,[3],92 % of control
